# Assay results reported in ChEMBL document CHEMBL4715853 (J Med Chem, 2020).
# Key:
# [1] = Inhibition of SARS Coronavirus helicase expressed in Escherichia coli assessed as reduction in ATP hydrolysis preincubated for 5 mins followed by ATP and circular ssDNA M13 addition and measured after 10 mins by malachite green and ammonium molybdate reagent based assay; parameters: species or system Severe acute respiratory syndrome-related coronavirus
# [2] = Inhibition of SARS Coronavirus helicase expressed in Escherichia coli assessed as reduction in dsDNA unwinding activity by FRET assay; parameters: species or system Severe acute respiratory syndrome-related coronavirus
# [3] = Inhibition of SARS Coronavirus helicase pp1ab domain assessed as reduction in helicase activity using DT20Cy3/Release BHQ oligomers by FRET-based assay; parameters: species or system Severe acute respiratory syndrome-related coronavirus
# [4] = Inhibition of SARS Coronavirus helicase pp1ab domain assessed as reduction in ATPase activity by phosphomolybdate-malachite green assay; parameters: species or system Severe acute respiratory syndrome-related coronavirus
# Human coronavirus OC43 = test: Antiviral activity against wild type HCoV-OC43 infected in BHK-21 cells incubated for 72 hrs by RT-PCR method; assay type: functional, cell-based; settings: Betacoronavirus 1, BHK-21, 72 h
# [5] = Antiviral activity against HCoV-NL63 infected in Rhesus macaque LLC-MK2 cells incubated for 72 hrs by RT-PCR method; assay type: functional, cell-based; settings: Human coronavirus NL63, LLC-MK2, 72 h
# [6] = Selectivity index, ratio of CC50 for African green monkey Vero E6 cells to EC50 for 2019-nCoV Beta CoV/Wuhan/WIV04/2019 infected in African green monkey Vero E6 cells; assay type: toxicity, Vero C1008; settings: read-out: Ratio CC50/EC50
# SARS-CoV-2 = test: Antiviral activity against 2019-nCoV BetaCoV/Wuhan/WIV04/2019 infected in African green monkey VeroE6 cells assessed as reduction in viral yield preincubated with virus for 1 hr followed by cell infection and […] by qRT-PCR method; assay type: functional, organism-based; settings: Severe acute respiratory syndrome coronavirus 2, BetaCoV/Wuhan/WIV04/2019, Vero C1008
# [7] = Cytotoxicity against African green monkey Vero E6 cells by the CCK8 assay; assay type: cell-based, Vero C1008; settings: chlorocebus sabaeus
# SARS-CoV [8] = test: Antiviral activity against SARS-CoV infected in African green monkey Vero E6 cells assessed as reduction in viral replication by ELISA; assay type: functional, organism-based; settings: Severe acute respiratory syndrome-related coronavirus, Vero C1008
# [9] = Cytotoxicity against African green monkey Vero E6 cells incubated for 2 days by the MTS assay; assay type: cell-based, Vero C1008; settings: chlorocebus sabaeus, time 2 day
# [10] = Selectivity index, ratio of CC50 for African green monkey Vero E6 cells to EC50 for SARS-CoV infected in African green monkey Vero E6 cells; assay type: toxicity, Vero C1008; settings: read-out: Ratio CC50/EC50
# Human coronavirus 229E = test: Antiviral activity against HCoV-229E infected in human MRC-5 cells incubated for 96 hrs by XTT assay; assay type: functional, organism-based; settings: MRC5, 96 h
# [11] = Selectivity ratio of CC50 for human MRC5 cells to EC50 for HCoV-229E infected in human MRC5 cells; assay type: toxicity, cell-based; settings: read-out: Ratio CC50/EC50
# [12] = Cytotoxicity against human MRC5 cells incubated for 96 hrs by XTT assay; assay type: cell-based
# [13] = Selectivity ratio of CC50 for African green monkey Vero cells to EC50 for SARS-CoV FFM1 infected in African green monkey Vero cells; assay type: toxicity; settings: read-out: Ratio CC50/EC50
# [14] = Selectivity ratio of CC50 for African green monkey Vero cells to EC50 for SARS-CoV FFM2 infected in African green monkey Vero cells; assay type: toxicity; settings: read-out: Ratio CC50/EC50
# SARS-CoV [15] = test: Antiviral activity against SARS-CoV FFM2 infected in African green monkey Vero cells assessed as reduction in virus induced cytopathic effect treated twice for 7 days; assay type: functional, organism-based; settings: Severe acute respiratory syndrome-related coronavirus, 168 h
# SARS-CoV [16] = test: Antiviral activity against SARS-CoV FFM1 infected in African green monkey Vero cells assessed as reduction in virus induced cytopathic effect treated twice for 7 days; assay type: functional, organism-based; settings: Severe acute respiratory syndrome-related coronavirus, 168 h
structure (smiles),measurement,setting,value
CCn1c(S)nc2c1c(=O)[nH]c(=O)n2C,IC50,[1],8.66 µM
same,IC50,[2],41.6 µM
COc1cc(C23OC4(O)CC(O)(CC(O)(C4)O2)O3)ccc1O,IC50,[3],2.7 µM
same,IC50,[4],0.68 µM
CC[C@@]1([C@H]2O[C@H]([C@H]3O[C@@](O)(CO)[C@H](C)C[C@@H]3C)C[C@H]2C)CC[C@H]([C@@]2(C)CC[C@]3(C[C@H](O)[C@@H](C)[C@@H]([C@H](C)[C@H](OC)[C@@H](C)C(=O)O)O3)O2)O1 [MONENSIN SODIUM],EC50,Human coronavirus OC43,3.81 µM
same,EC50,[5],1.54 µM
N=C(N)c1ccc2cc(OC(=O)c3ccc(N=C(N)N)cc3)ccc2c1 [NAFAMOSTAT],selectivity ratio,[6],> 4.4
same,EC50,SARS-CoV-2,22.5 µM
same,CC50,[7],> 100 µM
Nc1nc2c(ncn2CCC(CO)CO)c(=O)[nH]1 [PENCICLOVIR],selectivity ratio,[6],> 4.2
same,IC50,SARS-CoV-2,95.9 µM
same,CC50,[7],> 400 µM
CC(C)[C@@H]1NC(=O)[C@H](C)OC(=O)[C@@H](C(C)C)NC(=O)[C@@H](C(C)C)OC(=O)[C@H](C(C)C)NC(=O)[C@H](C)OC(=O)[C@@H](C(C)C)NC(=O)[C@@H](C(C)C)OC(=O)[C@H](C(C)C)NC(=O)[C@H](C)OC(=O)[C@@H](C(C)C)NC(=O)[C@@H](C(C)C)OC1=O [VALINOMYCIN],IC50,SARS-CoV [8],0.85 µM
same,CC50 at 48 h,[9],68 µM
same,selectivity ratio,[10],80
COc1cc(CC(C)c2nc(C)c(O)c(C34OC5(O)CC(O)(CC(O)(C5)O3)O4)c2CO)ccc1O (stereo unspecified),IC50,[3],5.4 µM
same,IC50,[4],2.8 µM
NS(=O)(=O)c1ccc(NC(=O)/C=C/c2ccco2)cc1,IC50,[1],2.09 µM
same,IC50,[2],13.2 µM
C[C@H]1O[C@@H](O[C@H]2CC[C@@]3(C)[C@@H](CC[C@]4(C)[C@@H]3C=CC3=C5CC(C)(C)CC[C@]5(CO)[C@H](O)C[C@]34C)[C@]2(C)CO)[C@H](O)[C@@H](O[C@@H]2O[C@H](CO)[C@@H](O)[C@H](O)[C@H]2O)[C@H]1O,EC50,Human coronavirus 229E,1.7 µM
same,selectivity ratio,[11],222
same,CC50 at 96 h,[12],383 µM
CC(=O)Oc1ccccc1C(=O)Nc1ncc([N+](=O)[O-])s1 [NITAZOXANIDE],selectivity ratio,[6],> 16.7
same,EC50,SARS-CoV-2,2.12 µM
same,CC50,[7],> 35.5 µM
CC1(C)[C@@H](O[C@H]2O[C@H](C(=O)O)[C@@H](O)[C@H](O)[C@H]2O[C@@H]2O[C@H](C(=O)O)[C@@H](O)[C@H](O)[C@H]2O)CC[C@]2(C)[C@H]3C(=O)C=C4[C@@H]5C[C@@](C)(C(=O)O)CC[C@]5(C)CC[C@@]4(C)[C@]3(C)CC[C@@H]12 [GLYCYRRHIZIN],selectivity ratio,[13],66
same,selectivity ratio,[14],66
same,EC50,SARS-CoV [15],365 µM
same,EC50,SARS-CoV [16],365 µM
Cc1cc(/C=C/c2ccc3cc(N(C)C)ccc3[n+]2C)c(C)n1-c1ccccc1 [PYRVINIUM PAMOATE],EC50,Human coronavirus OC43,3.21 µM
same,EC50,[5],3.35 µM
